Test results reported in patent publication US20120010075A1 (priority 2009, published 2012).
Where two headings read alike, the source gives them in different places.

Tests used:
[1] = tested on: Leptosphaeria nodorum (LEPTNO); experiment: In vitro fungitoxicity of hydrazones with and without copper towards Leptosphaeria nodorum (Example 26); assay type: cell-based; conditions: compound 0.05 μg/mL, 72 h at 25° C.
Phytophthora infestans [2] = assay type: in vivo, Phytophthora infestans on tomato; conditions: hydrazone 50 ppm + 50 μM CuCl2.2H2O, applied 24 h before inoculation, assessed 7 days after inoculation, tomato
Phytophthora capsici = experiment: In vitro fungitoxicity of hydrazones with and without copper towards Phytophthora capsici (Example 28, Table 3); assay type: cell-based; conditions: 0.050 μg/mL, 48 h
Ustilago maydis = experiment: In vitro fungitoxicity of hydrazones with and without copper towards Ustilago maydis (Example 29, Table 4); assay type: cell-based; conditions: 1 μg/mL, 48 h
[3] = tested on: Septoria tritici isolate USA-184; experiment: In vitro fungitoxicity of hydrazones with and without copper towards Septoria tritici (Example 30, Table 5); assay type: cell-based; conditions: Zymoseptoria tritici, 0.05 μg/mL
[4] = tested on: Leptosphaeria nodorum (LEPTNO); experiment: Isolated metal-hydrazone complexes versus parent hydrazones, in vitro, Leptosphaeria nodorum (Example 31, Table 7); assay type: cell-based; conditions: Parastagonospora nodorum; 0.1 μg/mL; copper-minus medium; 72 h
[5] = tested on: Leptosphaeria nodorum (glume blotch of wheat); experiment: Cu-hydrazone complexes versus parent hydrazones against glume blotch of wheat (Example 32, Table 8); assay type: in vivo, Leptosphaeria nodorum on wheat (cultivar Yuma); conditions: Parastagonospora nodorum, 200 ppm spray, inoculated after 24 h
[6] = tested on: Leptosphaeria nodorum (LEPTNO); experiment: Fungitoxicity of copper-hydrazone mixtures of different ratios towards Leptosphaeria nodorum (Example 35, Table 11); assay type: cell-based; conditions: Parastagonospora nodorum
Description: In vitro fungitoxicity assays against LEPTNO were conducted using the copper-minus medium described in Example 26. Mixtures containing hydrazone compound 16 at 200 nM and CuCl2 at 0.2 μM (1:1 molar ratio), 0.8 μM (1:4 ratio), 12.5 μM (1:62.5 ratio) and 200 μM (1:1000 ratio) were prepared in copper-minus medium. Two-fold dilution series of these mixtures were then prepared in 100 μL aliquots of copper-minus medium in flat-bottomed 96-well microtiter plates. A suspension of LEPTNO spores in copper-minus medium at 2×10^5 spores per mL was prepared as in Example 26. Microtiter plates were inoculated with 100 μL of the spore suspension and the plates were incubated at 25° C. for 72 h before assessing fungal growth by measuring light scattering in a NepheloStar plate reader.
Growth inhibition was determined by comparing growth in the presence of copper-hydrazone mixture with growth in control wells lacking the copper-hydrazone mixture. EC50 values were calculated from dose-response curves, and are expressed as the amounts of hydrazone or copper in each test mixture at the rates providing 50% inhibition of growth as compared to a control lacking the copper-hydrazone mixture.

Phytophthora infestans [7] = assay type: in vivo, Phytophthora infestans on tomato (Outdoor Girl)

Question: How did the inhibition of growth at 0.05 µg/mL ([1]; Parastagonospora nodorum, 72 h, copper-minus medium, read-out: LEPTNO % Inhn. Minus Copper Observed) turn out when O=C(N/N=C/c1cc(Cl)cc(Cl)c1O)c1ccccc1 [Example 16] was run?
Answer: Its inhibition of growth at 0.05 µg/mL is 0%.

Question: What about the “LEPTNO % Inhn. Plus Copper Observed” value ([1]; copper-plus medium (CuCl2.2H2O)) of the same compound?
Answer: Its value is 97.1%.

Question: What about the “TLB % Control” value (Phytophthora infestans [2]) of the same compound?
Answer: Its value is 94.0%.

Question: What about the “% Inhn Plus copper Observed” value (Phytophthora capsici; copper-plus AS medium (CuCl2, 50 μM)) of the same compound?
Answer: Its value is 91.9%.

Question: What about the inhibition of growth at 0.05 µg/mL (Phytophthora capsici; Phytophthora capsici, copper-minus AS medium, read-out: % Inhn Minus copper Observed) of the same compound?
Answer: The inhibition of growth at 0.05 µg/mL was 0%.

Question: What about the “% Inhn. Plus copper Observed” value (Ustilago maydis; copper-plus medium (CuCl2, 10 μM)) of the same compound?
Answer: Its value is 80.0%.

Question: And the inhibition of growth at 1 µg/mL (Ustilago maydis; Mycosarcoma maydis, copper-minus medium, read-out: % Inhn. Minus copper Observed)?
Answer: The inhibition of growth at 1 µg/mL was 0%.

Question: And the inhibition at 0.05 µg/mL ([3]; Colby formula, CuCl2, read-out: % Inhibition Plus copper Predicted)?
Answer: Its inhibition at 0.05 µg/mL is 35.8%.

Question: And the inhibition at 0.05 µg/mL ([3]; copper-minus medium, 90 h, read-out: % Inhibition Minus copper Observed)?
Answer: Its inhibition at 0.05 µg/mL is 35.8%.

Question: And the inhibition at 0.05 µg/mL ([3]; copper-plus medium CuCl2, 90 h, read-out: % Inhibition Plus copper Observed)?
Answer: The inhibition at 0.05 µg/mL was 93.6%.

Question: And the inhibition at 0.1 µg/mL [4]?
Answer: The inhibition at 0.1 µg/mL was 19.9%.

Question: And the pest or weed control at 200 ppm [5]?
Answer: The pest or weed control at 200 ppm was 41%.

Question: And the EC50 ([6]; Hydrazone without CuCl2, read-out: Hydrazone EC50)?
Answer: Its EC50 is greater than 3200 nM.

Question: And the EC50 ([6]; Hydrazone:Cu ratio 1 to 1, read-out: Hydrazone EC50 (amount of hydrazone in mixture at EC50))?
Answer: The EC50 was 72.2 nM.

Question: And the EC50 ([6]; Hydrazone:Cu ratio 1 to 4, read-out: Hydrazone EC50 (amount of hydrazone in mixture at EC50))?
Answer: Its EC50 is 43 nM.

Question: And the EC50 ([6]; Hydrazone:Cu ratio 1 to 62.5, read-out: Hydrazone EC50 (amount of hydrazone in mixture at EC50))?
Answer: The EC50 was 28.4 nM.

Question: And the EC50 ([6]; Hydrazone:Cu ratio 1 to 1000, read-out: Hydrazone EC50 (amount of hydrazone in mixture at EC50))?
Answer: The EC50 was 14 nM.

Question: What about the “% Control of Tomato Late Blight” value (Phytophthora infestans [7]; hydrazone 10 μM + CuCl2 10 μM) of the same compound?
Answer: The value was 33.5%.

Question: And the “% Control of Tomato Late Blight, predicted (in brackets, Colby)” value (“% Control … predicted (in brackets, Colby)” below) (Phytophthora infestans [7]; hydrazone 10 μM + CuCl2 10 μM)?
Answer: Its value is 3.1%.

Question: What about the “% Control of Tomato Late Blight” value (Phytophthora infestans [7]; hydrazone 10 μM + CuCl2 50 μM) of the same compound?
Answer: Its value is 39.7%.

Question: And the “% Control … predicted (in brackets, Colby)” value (Phytophthora infestans [7]; hydrazone 10 μM + CuCl2 50 μM)?
Answer: Its value is 9.9%.

Question: What about the “% Control of Tomato Late Blight” value (Phytophthora infestans [7]; hydrazone 10 μM + CuCl2 200 μM) of the same compound?
Answer: Its value is 69.0%.

Question: And the “% Control … predicted (in brackets, Colby)” value (Phytophthora infestans [7]; hydrazone 10 μM + CuCl2 200 μM)?
Answer: The value was 39.2%.

Question: What about the “% Control of Tomato Late Blight” value (Phytophthora infestans [7]; hydrazone 10 μM + CuCl2 400 μM) of the same compound?
Answer: Its value is 75.7%.

Question: What about the “% Control … predicted (in brackets, Colby)” value (Phytophthora infestans [7]; hydrazone 10 μM + CuCl2 400 μM) of the same compound?
Answer: The value was 56.6%.

Question: And the “% Control of Tomato Late Blight” value (Phytophthora infestans [7]; hydrazone 10 μM + CuCl2 800 μM)?
Answer: The value was 94.2%.

Question: What about the “% Control … predicted (in brackets, Colby)” value (Phytophthora infestans [7]; hydrazone 10 μM + CuCl2 800 μM) of the same compound?
Answer: Its value is 70.7%.

Question: What about the “% Control of Tomato Late Blight” value (Phytophthora infestans [7]; hydrazone 10 μM + CuSO4 10 μM) of the same compound?
Answer: Its value is 26.3%.

Question: What about the “% Control … predicted (in brackets, Colby)” value (Phytophthora infestans [7]; hydrazone 10 μM + CuSO4 10 μM) of the same compound?
Answer: Its value is 3.1%.

Question: What about the “% Control of Tomato Late Blight” value (Phytophthora infestans [7]; hydrazone 10 μM + CuSO4 50 μM) of the same compound?
Answer: Its value is 28.1%.

Question: And the “% Control … predicted (in brackets, Colby)” value (Phytophthora infestans [7]; hydrazone 10 μM + CuSO4 50 μM)?
Answer: The value was 6.2%.

Question: What about the “% Control of Tomato Late Blight” value (Phytophthora infestans [7]; hydrazone 10 μM + CuSO4 200 μM) of the same compound?
Answer: Its value is 56.0%.

Question: And the “% Control … predicted (in brackets, Colby)” value (Phytophthora infestans [7]; hydrazone 10 μM + CuSO4 200 μM)?
Answer: Its value is 50.4%.

Question: And the “% Control of Tomato Late Blight” value (Phytophthora infestans [7]; hydrazone 10 μM + CuSO4 400 μM)?
Answer: Its value is 77.3%.

Question: What about the “% Control … predicted (in brackets, Colby)” value (Phytophthora infestans [7]; hydrazone 10 μM + CuSO4 400 μM) of the same compound?
Answer: Its value is 76.4%.

Question: What about the “% Control of Tomato Late Blight” value (Phytophthora infestans [7]; hydrazone 10 μM + CuSO4 800 μM) of the same compound?
Answer: Its value is 72.2%.

Question: And the “% Control … predicted (in brackets, Colby)” value (Phytophthora infestans [7]; hydrazone 10 μM + CuSO4 800 μM)?
Answer: The value was 83.1%.

Question: What about the “% Control of Tomato Late Blight” value (Phytophthora infestans [7]; hydrazone 10 μM alone, no copper) of the same compound?
Answer: The value was 1.5%.

Question: What about the “% Control of Tomato Late Blight” value (Phytophthora infestans [7]; hydrazone 50 μM + CuCl2 10 μM) of the same compound?
Answer: The value was 41.9%.

Question: And the “% Control … predicted (in brackets, Colby)” value (Phytophthora infestans [7]; hydrazone 50 μM + CuCl2 10 μM)?
Answer: The value was 12.8%.

Question: And the “% Control of Tomato Late Blight” value (Phytophthora infestans [7]; hydrazone 50 μM + CuCl2 50 μM)?
Answer: Its value is 63.0%.

Question: And the “% Control … predicted (in brackets, Colby)” value (Phytophthora infestans [7]; hydrazone 50 μM + CuCl2 50 μM)?
Answer: The value was 18.8%.

Question: And the “% Control of Tomato Late Blight” value (Phytophthora infestans [7]; hydrazone 50 μM + CuCl2 200 μM)?
Answer: The value was 91.5%.

Question: And the “% Control … predicted (in brackets, Colby)” value (Phytophthora infestans [7]; hydrazone 50 μM + CuCl2 200 μM)?
Answer: The value was 45.2%.

Question: And the “% Control of Tomato Late Blight” value (Phytophthora infestans [7]; hydrazone 50 μM + CuCl2 400 μM)?
Answer: Its value is 91.7%.

Question: And the “% Control … predicted (in brackets, Colby)” value (Phytophthora infestans [7]; hydrazone 50 μM + CuCl2 400 μM)?
Answer: Its value is 60.9%.

Question: What about the “% Control of Tomato Late Blight” value (Phytophthora infestans [7]; hydrazone 50 μM + CuCl2 800 μM) of the same compound?
Answer: Its value is 98.3%.

Question: What about the “% Control … predicted (in brackets, Colby)” value (Phytophthora infestans [7]; hydrazone 50 μM + CuCl2 800 μM) of the same compound?
Answer: Its value is 73.6%.

Question: What about the “% Control of Tomato Late Blight” value (Phytophthora infestans [7]; hydrazone 50 μM + CuSO4 10 μM) of the same compound?
Answer: Its value is 56.8%.

Question: What about the “% Control … predicted (in brackets, Colby)” value (Phytophthora infestans [7]; hydrazone 50 μM + CuSO4 10 μM) of the same compound?
Answer: Its value is 12.8%.
